US10131652B2, “Pyrimidinyloxy benzene derivatives as herbicides” (E. I. DU PONT DE NEMOURS AND COMPANY, priority 2014, dated 2018)
Where two headings read alike, the source gives them in different places.

What was measured:
Test in all cases: Test D pre-/postemergence plant response
Type in all cases: in vivo
[1] = test system: lambsquarters (Chenopodium album); settings: Chenopodium album; for pest or weed control at 62 g/ha: 62 g ai/ha; for pest or weed control at 125 g/ha: 125 g ai/ha
Method in brief: (§1)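 Pre-/post-emergence greenhouse test. Pre: seeded loam+sand, sprayed same day. Post: 1–4 leaf plants (2–18 cm), peat/vermiculite mix. Formulation: non-phytotoxic solvent + surfactant. Scored visually d13–15, 0–100 vs control.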

[2] = test system: large (Lg) crabgrass (Digitaria sanguinalis); settings: Digitaria sanguinalis; for pest or weed control at 16 g/ha: 16 g ai/ha; for pest or weed control at 31 g/ha: 31 g ai/ha; for pest or weed control at 62 g/ha: 62 g ai/ha; for pest or weed control at 125 g/ha: 125 g ai/ha
Method in brief: as §1

[3] = test system: morningglory (Ipomoea coccinea); settings: Ipomoea; for pest or weed control at 16 g/ha: 16 g ai/ha; for pest or weed control at 31 g/ha: 31 g ai/ha; for pest or weed control at 62 g/ha: 62 g ai/ha; for pest or weed control at 125 g/ha: 125 g ai/ha
Method in brief: as §1

[4] = test system: pigweed (Amaranthus retroflexus); settings: Amaranthus retroflexus; for pest or weed control at 16 g/ha: 16 g ai/ha; for pest or weed control at 31 g/ha: 31 g ai/ha; for pest or weed control at 62 g/ha: 62 g ai/ha; for pest or weed control at 125 g/ha: 125 g ai/ha
Method in brief: as §1

soybean (Glycine max) = settings: Glycine max; for plant injury at 16 g/ha: 16 g ai/ha; for plant injury at 31 g/ha: 31 g ai/ha; for plant injury at 62 g/ha: 62 g ai/ha; for plant injury at 125 g/ha: 125 g ai/ha
Method in brief: as §1

[5] = test system: velvetleaf (Abutilon theophrasti); settings: Abutilon theophrasti; for pest or weed control at 16 g/ha: 16 g ai/ha; for pest or weed control at 31 g/ha: 31 g ai/ha; for pest or weed control at 62 g/ha: 62 g ai/ha; for pest or weed control at 125 g/ha: 125 g ai/ha
Method in brief: as §1

[6] = test system: waterhemp (common waterhemp, Amaranthus rudis); settings: Amaranthus tuberculatus; for pest or weed control at 16 g/ha: 16 g ai/ha; for pest or weed control at 31 g/ha: 31 g ai/ha; for pest or weed control at 62 g/ha: 62 g ai/ha; for pest or weed control at 125 g/ha: 125 g ai/ha
Method in brief: as §1

[7] = post-emergence, Postemergence, scale 0 to 100, 0 no effect, 100 complete control, read-out: Plant response rating, Lambsquarters
[8] = post-emergence, Postemergence, scale 0 to 100 (0 no effect, 100 complete control), read-out: Crabgrass, Large plant response rating
[9] = post-emergence, Postemergence, scale 0 to 100, 0 no effect, 100 complete control, read-out: Plant response rating, Crabgrass, Large
[10] = pre-emergence, Preemergence, scale 0 to 100 (0 no effect, 100 complete control), read-out: Plant response rating, Crabgrass, Large
[11] = post-emergence, Postemergence, scale 0 to 100 (0 no effect, 100 complete control), read-out: Morningglory plant response rating
[12] = post-emergence, Postemergence, scale 0 to 100, 0 no effect, 100 complete control, read-out: Plant response rating, Morningglory
[13] = pre-emergence, Preemergence, scale 0 to 100 (0 no effect, 100 complete control), read-out: Plant response rating, Morningglory
[14] = post-emergence, Postemergence, scale 0 to 100 (0 no effect, 100 complete control), read-out: Pigweed plant response rating
[15] = post-emergence, Postemergence, scale 0 to 100, 0 no effect, 100 complete control, read-out: Plant response rating, Pigweed
[16] = pre-emergence, Preemergence, scale 0 to 100 (0 no effect, 100 complete control), read-out: Plant response rating, Pigweed
[17] = post-emergence, Postemergence, scale 0 to 100 (0 no effect, 100 complete control), read-out: Soybean plant response rating
[18] = post-emergence, Postemergence, scale 0 to 100, 0 no effect, 100 complete control, read-out: Plant response rating, Soybean
[19] = pre-emergence, Preemergence, scale 0 to 100 (0 no effect, 100 complete control), read-out: Plant response rating, Soybean
[20] = post-emergence, Postemergence, scale 0 to 100 (0 no effect, 100 complete control), read-out: Velvetleaf plant response rating
[21] = post-emergence, Postemergence, scale 0 to 100, 0 no effect, 100 complete control, read-out: Plant response rating, Velvetleaf
[22] = pre-emergence, Preemergence, scale 0 to 100 (0 no effect, 100 complete control), read-out: Plant response rating, Velvetleaf
[23] = post-emergence, Postemergence, scale 0 to 100 (0 no effect, 100 complete control), read-out: Waterhemp plant response rating
[24] = post-emergence, Postemergence, scale 0 to 100, 0 no effect, 100 complete control, read-out: Plant response rating, Waterhemp
[25] = pre-emergence, Preemergence, scale 0 to 100 (0 no effect, 100 complete control), read-out: Plant response rating, Waterhemp

FC(F)c1cc(-c2ccccc2Oc2ncc(Cl)cn2)on1 [Compound 53, 5-chloro-2-[2-[3-(difluoromethyl)-5-isoxazolyl]phenoxy]pyrimidine]
pest or weed control at 62 g/ha [1, 7]: 100%
pest or weed control at 125 g/ha [1, 7]: 100%
pest or weed control at 125 g/ha ([1]; pre-emergence, Preemergence, read-out: Plant response rating (scale 0 to 100), Lambsquarters): 100%
pest or weed control at 16 g/ha ([1]; pre-emergence, Preemergence, 16 g ai/ha, scale 0 to 100 (0 no effect, 100 complete control), read-out: Plant response rating, Lambsquarters): 100%
pest or weed control at 31 g/ha ([1]; pre-emergence, Preemergence, 31 g ai/ha, scale 0 to 100 (0 no effect, 100 complete control), read-out: Plant response rating, Lambsquarters): 100%
pest or weed control at 62 g/ha ([1]; pre-emergence, Preemergence, scale 0 to 100 (0 no effect, 100 complete control), read-out: Plant response rating, Lambsquarters): 100%
pest or weed control at 16 g/ha [2, 8]: 10%
pest or weed control at 31 g/ha [2, 8]: 20%
pest or weed control at 62 g/ha [2, 9]: 15%
pest or weed control at 125 g/ha [2, 9]: 30%
pest or weed control at 125 g/ha ([2]; pre-emergence, Preemergence, read-out: Plant response rating (scale 0 to 100), Crabgrass, Large): 100%
pest or weed control at 16 g/ha [2, 10]: 65%
pest or weed control at 31 g/ha [2, 10]: 95%
pest or weed control at 62 g/ha [2, 10]: 98%
pest or weed control at 16 g/ha [3, 11]: 50%
pest or weed control at 31 g/ha [3, 11]: 80%
pest or weed control at 62 g/ha [3, 12]: 85%
pest or weed control at 125 g/ha [3, 12]: 55%
pest or weed control at 125 g/ha ([3]; pre-emergence, Preemergence, read-out: Plant response rating (scale 0 to 100), Morningglory): 40%
pest or weed control at 16 g/ha [3, 13]: 0%
pest or weed control at 31 g/ha [3, 13]: 0%
pest or weed control at 62 g/ha [3, 13]: 45%
pest or weed control at 16 g/ha [4, 14]: 85%
pest or weed control at 31 g/ha [4, 14]: 90%
pest or weed control at 62 g/ha [4, 15]: 90%
pest or weed control at 125 g/ha [4, 15]: 100%
pest or weed control at 125 g/ha ([4]; pre-emergence, Preemergence, read-out: Plant response rating (scale 0 to 100), Pigweed): 100%
pest or weed control at 16 g/ha [4, 16]: 95%
pest or weed control at 31 g/ha [4, 16]: 100%
pest or weed control at 62 g/ha [4, 16]: 100%
plant injury at 16 g/ha (soybean (Glycine max); [17]): 60%
plant injury at 31 g/ha (soybean (Glycine max); [17]): 90%
plant injury at 62 g/ha (soybean (Glycine max); [18]): 95%
plant injury at 125 g/ha (soybean (Glycine max); [18]): 98%
plant injury at 125 g/ha (soybean (Glycine max); pre-emergence, Preemergence, read-out: Plant response rating (scale 0 to 100), Soybean): 80%
plant injury at 16 g/ha (soybean (Glycine max); [19]): 0%
plant injury at 31 g/ha (soybean (Glycine max); [19]): 25%
plant injury at 62 g/ha (soybean (Glycine max); [19]): 55%
pest or weed control at 16 g/ha [5, 20]: 55%
pest or weed control at 31 g/ha [5, 20]: 60%
pest or weed control at 62 g/ha [5, 21]: 70%
pest or weed control at 125 g/ha [5, 21]: 100%
pest or weed control at 125 g/ha ([5]; pre-emergence, Preemergence, read-out: Plant response rating (scale 0 to 100), Velvetleaf): 100%
pest or weed control at 16 g/ha [5, 22]: 100%
pest or weed control at 31 g/ha [5, 22]: 100%
pest or weed control at 62 g/ha [5, 22]: 100%
pest or weed control at 16 g/ha [6, 23]: 80%
pest or weed control at 31 g/ha [6, 23]: 90%
pest or weed control at 62 g/ha [6, 24]: 90%
pest or weed control at 125 g/ha [6, 24]: 100%
pest or weed control at 125 g/ha ([6]; pre-emergence, Preemergence, read-out: Plant response rating (scale 0 to 100), Waterhemp): 100%
pest or weed control at 16 g/ha [6, 25]: 100%
pest or weed control at 31 g/ha [6, 25]: 100%
pest or weed control at 62 g/ha [6, 25]: 100%
